Test results from ChEMBL document CHEMBL3425467, “Synthesis, cytotoxicity and haemolytic activity of Pulsatilla saponin A, D derivatives” (Bioorg Med Chem Lett, 2015).

Key:
[1] = Cytotoxicity against human Bel7402 cells assessed as inhibition of cell growth after 24 hrs by MTT assay; assay type: functional, cell-based; conditions: Bel-7402, 24 h
[2] = Hemolytic activity in rabbit RBC assessed as induction of hemolysis; assay type: cell-based, Oryctolagus cuniculus, Erythrocyte; conditions: red blood cells, read-out: HD50 (the source's name)
[3] = Cytotoxicity against human HL7702 cells assessed as inhibition of cell growth after 24 hrs by MTT assay; assay type: cell-based; conditions: L02, 24 h
SMMC-7721 = test: Cytotoxicity against human SMMC7721 cells assessed as inhibition of cell growth after 24 hrs by MTT assay; assay type: functional, cell-based; conditions: SMMC-7721, 24 h
A549 = test: Cytotoxicity against human A549 cells assessed as inhibition of cell growth after 24 hrs by MTT assay; assay type: functional, cell-based; conditions: A549, 24 h
[4] = Ratio of hemolytic HD50 for PSA to hemolytic HD50 for compound in rabbit RBC; assay type: ADME, cell-based, Oryctolagus cuniculus; conditions: erythrocyte
[5] = Ratio of hemolytic HD50 for PSD to hemolytic HD50 for compound in rabbit RBC; assay type: ADME, cell-based, Oryctolagus cuniculus; conditions: erythrocyte
[6] = Toxicity in iv dosed mouse assessed as tolerance dose; assay type: organism-based; conditions: in vivo
Mus musculus [7] = test: Toxicity in mouse assessed as induction of induction of death at 0.1 mL/10 g, iv; assay type: organism-based; conditions: in vivo
Mus musculus [8] = test: Toxicity in mouse assessed as death time at 0.1 mL/10 g, iv; assay type: organism-based; conditions: in vivo
Mus musculus [9] = test: Toxicity in mouse assessed as induction of hematuria at 0.1 mL/10 g, iv; assay type: organism-based; conditions: in vivo

SMILES	IC50 [1]	HC50 [2]	IC50 [3]	IC50 (SMMC-7721)	IC50 (A549)	Ratio [4]	Ratio [5]	MTD [6]	Activity (Mus musculus [7])	Time (Mus musculus [8])	Activity (Mus musculus [9])
C[C@@H]1O[C@@H](O[C@H]2[C@H](O[C@H]3CC[C@@]4(C)[C@@H](CC[C@]5(C)[C@@H]4CC=C4[C@@H]6CC(C)(C)CC[C@]6(C(N)=O)CC[C@]45C)[C@]3(C)CO)OC[C@H](O)[C@@H]2O)[C@H](O)[C@H](O)[C@H]1O	> 100 µM	30.2 µM	> 100 µM	> 100 µM	> 100 µM	–	–	–	–	–	–
C[C@@H]1O[C@@H](O[C@H]2[C@H](O[C@H]3CC[C@@]4(C)[C@@H](CC[C@]5(C)[C@@H]4CC=C4[C@@H]6CC(C)(C)CC[C@]6(C(=O)NC6CC6)CC[C@]45C)[C@]3(C)CO)OC[C@H](O)[C@@H]2O)[C@H](O)[C@H](O)[C@H]1O	69.2 µM	127 µM	36.2 µM	32.6 µM	38.3 µM	–	–	–	–	–	–
C[C@@H]1O[C@@H](O[C@H]2[C@H](O[C@H]3CC[C@@]4(C)[C@@H](CC[C@]5(C)[C@@H]4CC=C4[C@@H]6CC(C)(C)CC[C@]6(C(=O)N6CCOCC6)CC[C@]45C)[C@]3(C)CO)OC[C@H](O)[C@@H]2O)[C@H](O)[C@H](O)[C@H]1O	37.9 µM	230 µM	22 µM	17.2 µM	34.7 µM	20	–	–	–	–	–
CCN(CC)CCNC(=O)[C@]12CCC(C)(C)C[C@H]1C1=CC[C@@H]3[C@@]4(C)CC[C@H](O[C@@H]5OC[C@H](O)[C@H](O)[C@H]5O[C@@H]5O[C@@H](C)[C@H](O)[C@@H](O)[C@H]5O)[C@@](C)(CO)[C@@H]4CC[C@@]3(C)[C@]1(C)CC2	> 100 µM	75.3 µM	40.6 µM	48 µM	65.3 µM	–	–	–	–	–	–
C[C@@H]1O[C@@H](O[C@H]2[C@H](O[C@H]3CC[C@@]4(C)[C@@H](CC[C@]5(C)[C@@H]4CC=C4[C@@H]6CC(C)(C)CC[C@]6(C(=O)NCCN6CCCC6)CC[C@]45C)[C@]3(C)CO)OC[C@H](O)[C@@H]2O)[C@H](O)[C@H](O)[C@H]1O	> 100 µM	104 µM	44.4 µM	46.8 µM	> 100 µM	–	–	–	–	–	–
C[C@@H]1O[C@@H](O[C@H]2[C@H](O[C@H]3CC[C@@]4(C)[C@@H](CC[C@]5(C)[C@@H]4CC=C4[C@@H]6CC(C)(C)CC[C@]6(C(=O)Nc6ccccc6O)CC[C@]45C)[C@]3(C)CO)OC[C@H](O)[C@@H]2O)[C@H](O)[C@H](O)[C@H]1O	> 100 µM	58.2 µM	85.5 µM	1.3 µM	> 100 µM	–	–	–	–	–	–
C[C@@H]1O[C@@H](O[C@H]2[C@H](O[C@H]3CC[C@@]4(C)[C@@H](CC[C@]5(C)[C@@H]4CC=C4[C@@H]6CC(C)(C)CC[C@]6(C(=O)NCC(=O)O)CC[C@]45C)[C@]3(C)CO)OC[C@H](O)[C@@H]2O)[C@H](O)[C@H](O)[C@H]1O	0.9 µM	> 500 µM	> 100 µM	3.2 µM	1 µM	20	–	–	–	–	–
C[C@@H]1O[C@@H](O[C@H]2[C@H](O[C@H]3CC[C@@]4(C)[C@@H](CC[C@]5(C)[C@@H]4CC=C4[C@@H]6CC(C)(C)CC[C@]6(C(=O)Nc6ccc(C(=O)O)cc6)CC[C@]45C)[C@]3(C)CO)OC[C@H](O)[C@@H]2O)[C@H](O)[C@H](O)[C@H]1O	4.2 µM	356 µM	0.7 µM	> 100 µM	1.1 µM	20	–	–	–	–	–
C[C@@H]1O[C@@H](O[C@H]2[C@H](O[C@H]3CC[C@@]4(C)[C@@H](CC[C@]5(C)[C@@H]4CC=C4[C@@H]6CC(C)(C)CC[C@]6(C(=O)N6CCC[C@@H]6C(=O)O)CC[C@]45C)[C@]3(C)CO)OC[C@H](O)[C@@H]2O)[C@H](O)[C@H](O)[C@H]1O	64 µM	22.9 µM	53.7 µM	41.4 µM	61.6 µM	–	–	–	–	–	–
C[C@@H]1O[C@@H](O[C@H]2[C@H](O[C@H]3CC[C@@]4(C)[C@@H](CC[C@]5(C)[C@@H]4CC=C4[C@@H]6CC(C)(C)CC[C@]6(C(=O)N6CCN(CCC(=O)O)CC6)CC[C@]45C)[C@]3(C)CO)OC[C@H](O)[C@@H]2O)[C@H](O)[C@H](O)[C@H]1O	> 100 µM	195 µM	46.6 µM	> 100 µM	23.4 µM	20	–	–	–	–	–
C[C@@H]1O[C@@H](O[C@H]2[C@H](O[C@H]3CC[C@@]4(C)[C@@H](CC[C@]5(C)[C@@H]4CC=C4[C@@H]6CC(C)(C)CC[C@]6(C(=O)N[C@H](CO)C(=O)O)CC[C@]45C)[C@]3(C)CO)OC[C@H](O)[C@@H]2O)[C@H](O)[C@H](O)[C@H]1O	22.3 µM	8.3 µM	25.6 µM	26.6 µM	32.5 µM	–	–	–	–	–	–
COC(=O)[C@H]1CCCN1C(=O)[C@]12CCC(C)(C)C[C@H]1C1=CC[C@@H]3[C@@]4(C)CC[C@H](O[C@@H]5OC[C@H](O)[C@H](O)[C@H]5O[C@@H]5O[C@@H](C)[C@H](O)[C@@H](O)[C@H]5O)[C@@](C)(CO)[C@@H]4CC[C@@]3(C)[C@]1(C)CC2	59.6 µM	494 µM	36.6 µM	36 µM	43.2 µM	20	–	–	–	–	–
COC(=O)CCN1CCN(C(=O)[C@]23CCC(C)(C)C[C@H]2C2=CC[C@@H]4[C@@]5(C)CC[C@H](O[C@@H]6OC[C@H](O)[C@H](O)[C@H]6O[C@@H]6O[C@@H](C)[C@H](O)[C@@H](O)[C@H]6O)[C@@](C)(CO)[C@@H]5CC[C@@]4(C)[C@]2(C)CC3)CC1	53.2 µM	57.7 µM	61.7 µM	38.3 µM	14 µM	–	–	–	–	–	–
COC(=O)[C@@H](CO)NC(=O)[C@]12CCC(C)(C)C[C@H]1C1=CC[C@@H]3[C@@]4(C)CC[C@H](O[C@@H]5OC[C@H](O)[C@H](O)[C@H]5O[C@@H]5O[C@@H](C)[C@H](O)[C@@H](O)[C@H]5O)[C@@](C)(CO)[C@@H]4CC[C@@]3(C)[C@]1(C)CC2	> 100 µM	144 µM	> 100 µM	88.3 µM	> 100 µM	20	–	–	–	–	–
COC(=O)[C@]12CCC(C)(C)C[C@H]1C1=CC[C@@H]3[C@@]4(C)CC[C@H](O[C@@H]5OC[C@H](O)[C@H](O)[C@H]5O[C@@H]5O[C@@H](C)[C@H](O)[C@@H](O)[C@H]5O)[C@@](C)(CO)[C@@H]4CC[C@@]3(C)[C@]1(C)CC2	72.1 µM	8.5 µM	36.3 µM	40.8 µM	27 µM	–	–	–	–	–	–
CC(=O)OCOC(=O)[C@]12CCC(C)(C)C[C@H]1C1=CC[C@@H]3[C@@]4(C)CC[C@H](O[C@@H]5OC[C@H](O)[C@H](O)[C@H]5O[C@@H]5O[C@@H](C)[C@H](O)[C@@H](O)[C@H]5O)[C@@](C)(CO)[C@@H]4CC[C@@]3(C)[C@]1(C)CC2	33.8 µM	3.6 µM	20.5 µM	13.2 µM	21.3 µM	–	–	–	–	–	–
C[C@@H]1O[C@@H](O[C@H]2[C@H](O[C@H]3CC[C@@]4(C)[C@@H](CC[C@]5(C)[C@@H]4CC=C4[C@@H]6CC(C)(C)CC[C@]6(C(=O)N6CCC[C@H]6C(=O)O)CC[C@]45C)[C@]3(C)CO)OC[C@H](O[C@@H]3O[C@H](CO)[C@@H](O)[C@H](O)[C@H]3O)[C@@H]2O)[C@H](O)[C@H](O)[C@H]1O	97.8 µM	326 µM	> 100 µM	46.8 µM	71.1 µM	–	20	–	–	–	–
C[C@@H]1O[C@@H](O[C@H]2[C@H](O[C@H]3CC[C@@]4(C)[C@@H](CC[C@]5(C)[C@@H]4CC=C4[C@@H]6CC(C)(C)CC[C@]6(C(=O)NCC(=O)[O-])CC[C@]45C)[C@]3(C)CO)OC[C@H](O)[C@@H]2O)[C@H](O)[C@H](O)[C@H]1O.[Na+]	–	–	–	–	–	–	–	> 160 mg/kg	Non-toxic	> 14 days	Non-toxic
C[C@@H]1O[C@@H](O[C@H]2[C@H](O[C@H]3CC[C@@]4(C)[C@@H](CC[C@]5(C)[C@@H]4CC=C4[C@@H]6CC(C)(C)CC[C@]6(C(=O)NCC(=O)[O-])CC[C@]45C)[C@]3(C)CO)OC[C@H](O[C@@H]3O[C@H](CO)[C@@H](O)[C@H](O)[C@H]3O)[C@@H]2O)[C@H](O)[C@H](O)[C@H]1O.[Na+]	–	–	–	–	–	–	–	> 160 mg/kg	Non-toxic	> 14 days	Non-toxic
C[C@@H]1O[C@@H](O[C@H]2[C@H](O[C@H]3CC[C@@]4(C)[C@@H](CC[C@]5(C)[C@@H]4CC=C4[C@@H]6CC(C)(C)CC[C@]6(C(=O)[O-])CC[C@]45C)[C@]3(C)CO)OC[C@H](O)[C@@H]2O)[C@H](O)[C@H](O)[C@H]1O.[Na+]	–	–	–	–	–	–	–	10 mg/kg	Toxic	< 0.0417 days	Toxic
C[C@@H]1O[C@@H](O[C@H]2[C@H](O[C@H]3CC[C@@]4(C)[C@@H](CC[C@]5(C)[C@@H]4CC=C4[C@@H]6CC(C)(C)CC[C@]6(C(=O)[O-])CC[C@]45C)[C@]3(C)CO)OC[C@H](O[C@@H]3O[C@H](CO)[C@@H](O)[C@H](O)[C@H]3O)[C@@H]2O)[C@H](O)[C@H](O)[C@H]1O.[Na+]	–	–	–	–	–	–	–	10 mg/kg	Toxic	< 0.0417 days	Toxic
